Reference: ChEMBL document CHEMBL5325488, “Discovery of SMD-3040 as a Potent and Selective SMARCA2 PROTAC Degrader with Strong in vivo Antitumor Activity” (J Med Chem, 2023)
The source made the active and inactive calls. The rule behind the calls is not given here.

Columns and labels:
[1] = target: T1, von Hippel-Lindau disease tumor suppressor/SWI/SNF-related matrix-associated actin-dependent regulator of chromatin subfamily A member 2 (Homo sapiens, UniProt P51531+P40337); assay: In vivo PROTAC activity at VHL/SMARCA2 in SCID mouse xenografted with human MV4-11 cells assessed as remaining activity in tumor at 50 mg/kg, iv administered as single dose measured after 96 hrs by Western blotting analysis (reference value: 100 +/- 15 % ); assay type: ADME, organism-based
Target sequence in this assay (P51531 whole entry): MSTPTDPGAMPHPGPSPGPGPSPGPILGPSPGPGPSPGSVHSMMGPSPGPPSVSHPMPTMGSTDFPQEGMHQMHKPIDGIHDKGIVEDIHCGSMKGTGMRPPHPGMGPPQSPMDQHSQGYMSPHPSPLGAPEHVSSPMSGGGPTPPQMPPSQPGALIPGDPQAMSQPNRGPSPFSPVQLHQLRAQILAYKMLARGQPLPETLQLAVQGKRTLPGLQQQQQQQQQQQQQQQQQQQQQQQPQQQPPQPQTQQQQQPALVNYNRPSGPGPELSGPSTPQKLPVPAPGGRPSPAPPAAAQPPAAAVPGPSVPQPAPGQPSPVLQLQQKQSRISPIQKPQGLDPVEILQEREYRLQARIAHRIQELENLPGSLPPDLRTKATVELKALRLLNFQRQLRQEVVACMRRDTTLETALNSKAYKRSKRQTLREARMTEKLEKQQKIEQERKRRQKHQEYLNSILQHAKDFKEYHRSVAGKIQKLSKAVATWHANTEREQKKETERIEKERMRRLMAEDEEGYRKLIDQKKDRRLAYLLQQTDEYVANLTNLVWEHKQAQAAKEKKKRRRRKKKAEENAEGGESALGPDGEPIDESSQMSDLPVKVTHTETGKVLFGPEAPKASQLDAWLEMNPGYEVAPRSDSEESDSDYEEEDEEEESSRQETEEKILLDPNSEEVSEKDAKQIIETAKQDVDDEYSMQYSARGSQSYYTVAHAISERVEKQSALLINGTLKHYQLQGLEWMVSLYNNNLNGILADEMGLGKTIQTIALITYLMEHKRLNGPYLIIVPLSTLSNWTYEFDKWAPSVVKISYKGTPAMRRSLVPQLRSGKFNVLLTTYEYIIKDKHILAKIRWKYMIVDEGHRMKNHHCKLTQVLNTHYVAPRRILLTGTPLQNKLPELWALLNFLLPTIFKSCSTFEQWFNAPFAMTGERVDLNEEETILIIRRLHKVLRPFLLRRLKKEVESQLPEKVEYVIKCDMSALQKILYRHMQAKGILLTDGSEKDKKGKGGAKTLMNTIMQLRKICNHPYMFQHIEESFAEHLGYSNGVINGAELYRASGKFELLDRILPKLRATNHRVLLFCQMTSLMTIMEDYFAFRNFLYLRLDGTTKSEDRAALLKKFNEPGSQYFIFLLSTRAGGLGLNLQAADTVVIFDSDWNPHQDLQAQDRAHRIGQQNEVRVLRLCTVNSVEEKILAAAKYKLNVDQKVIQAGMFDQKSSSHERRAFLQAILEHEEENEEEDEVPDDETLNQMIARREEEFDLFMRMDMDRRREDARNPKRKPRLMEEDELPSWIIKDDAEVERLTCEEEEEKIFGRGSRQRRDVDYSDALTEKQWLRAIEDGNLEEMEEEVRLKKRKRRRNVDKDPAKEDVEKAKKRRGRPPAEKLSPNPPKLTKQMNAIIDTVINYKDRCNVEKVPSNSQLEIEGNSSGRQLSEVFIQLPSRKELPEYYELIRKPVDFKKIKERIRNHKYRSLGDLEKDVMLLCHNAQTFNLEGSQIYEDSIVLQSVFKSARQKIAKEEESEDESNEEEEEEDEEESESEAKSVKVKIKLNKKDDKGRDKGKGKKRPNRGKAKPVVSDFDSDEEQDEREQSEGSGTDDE
Target sequence in this assay (P40337 whole entry): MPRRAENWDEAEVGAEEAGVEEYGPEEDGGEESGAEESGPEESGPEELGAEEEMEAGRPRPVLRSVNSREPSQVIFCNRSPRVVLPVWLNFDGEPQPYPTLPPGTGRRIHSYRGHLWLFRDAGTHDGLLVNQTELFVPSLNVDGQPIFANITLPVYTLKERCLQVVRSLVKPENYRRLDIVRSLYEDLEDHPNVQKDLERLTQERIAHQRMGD

[2] = target: T2, von Hippel-Lindau disease tumor suppressor/SWI/SNF-related matrix-associated actin-dependent regulator of chromatin subfamily A member 4 (Homo sapiens, UniProt P51532+P40337); assay: In vivo PROTAC activity at VHL/SMARCA4 in SCID mouse xenografted with human MV4-11 cells assessed as remaining activity in tumor at 50 mg/kg, iv administered as single dose measured after 6 hrs by Western blotting analysis (reference value: 100 +/- 15 % ); assay type: ADME, organism-based
Target sequence in this assay (P51532 whole entry): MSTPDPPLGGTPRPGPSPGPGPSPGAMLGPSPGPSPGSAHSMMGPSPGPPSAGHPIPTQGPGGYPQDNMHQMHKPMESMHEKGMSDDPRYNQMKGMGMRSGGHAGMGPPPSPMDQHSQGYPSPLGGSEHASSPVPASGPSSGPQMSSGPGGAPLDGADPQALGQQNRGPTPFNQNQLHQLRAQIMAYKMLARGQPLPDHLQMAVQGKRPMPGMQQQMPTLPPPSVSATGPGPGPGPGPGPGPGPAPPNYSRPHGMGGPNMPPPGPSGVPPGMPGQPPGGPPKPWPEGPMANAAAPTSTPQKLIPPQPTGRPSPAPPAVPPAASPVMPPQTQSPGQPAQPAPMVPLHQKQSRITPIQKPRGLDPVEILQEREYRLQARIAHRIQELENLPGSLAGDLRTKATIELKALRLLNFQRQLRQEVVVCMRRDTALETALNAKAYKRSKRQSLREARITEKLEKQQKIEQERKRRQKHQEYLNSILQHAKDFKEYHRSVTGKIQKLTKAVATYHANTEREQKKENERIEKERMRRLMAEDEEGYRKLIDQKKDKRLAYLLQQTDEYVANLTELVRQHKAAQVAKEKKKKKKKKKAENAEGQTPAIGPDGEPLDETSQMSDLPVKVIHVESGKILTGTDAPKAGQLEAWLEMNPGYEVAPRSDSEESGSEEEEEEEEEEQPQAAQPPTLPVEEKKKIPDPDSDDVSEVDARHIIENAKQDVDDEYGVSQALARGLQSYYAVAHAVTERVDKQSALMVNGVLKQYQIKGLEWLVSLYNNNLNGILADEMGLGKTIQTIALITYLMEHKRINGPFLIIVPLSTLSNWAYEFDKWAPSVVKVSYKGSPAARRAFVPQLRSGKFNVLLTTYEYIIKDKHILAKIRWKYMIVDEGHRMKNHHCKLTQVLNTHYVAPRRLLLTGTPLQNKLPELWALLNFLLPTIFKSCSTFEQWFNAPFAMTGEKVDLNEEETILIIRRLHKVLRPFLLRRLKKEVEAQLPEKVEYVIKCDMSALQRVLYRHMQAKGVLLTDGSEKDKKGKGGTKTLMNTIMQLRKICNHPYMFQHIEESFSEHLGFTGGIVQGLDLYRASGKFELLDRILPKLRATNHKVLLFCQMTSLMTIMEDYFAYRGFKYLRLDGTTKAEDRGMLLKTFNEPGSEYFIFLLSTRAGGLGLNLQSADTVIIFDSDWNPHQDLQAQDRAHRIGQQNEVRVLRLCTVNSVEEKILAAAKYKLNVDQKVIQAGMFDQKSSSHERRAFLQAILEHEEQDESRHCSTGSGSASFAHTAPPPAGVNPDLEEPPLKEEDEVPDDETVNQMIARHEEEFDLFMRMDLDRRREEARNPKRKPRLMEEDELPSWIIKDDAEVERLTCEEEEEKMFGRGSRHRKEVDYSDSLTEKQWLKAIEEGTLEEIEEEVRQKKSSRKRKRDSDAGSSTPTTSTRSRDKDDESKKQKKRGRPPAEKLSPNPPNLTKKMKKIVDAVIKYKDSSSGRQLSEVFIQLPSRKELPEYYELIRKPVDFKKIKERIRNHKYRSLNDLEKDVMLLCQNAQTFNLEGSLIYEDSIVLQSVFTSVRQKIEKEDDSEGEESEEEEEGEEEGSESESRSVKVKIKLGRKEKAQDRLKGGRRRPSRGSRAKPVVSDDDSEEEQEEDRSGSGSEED
Target sequence in this assay (P40337 whole entry): as the sequence (P40337 whole entry) above

[3] = Drug concentration in SCID mouse tumor xenografted with human MV4-11 cells at 50 mg/kg, iv measured after 6 hrs by LC-MS/MS method; assay type: ADME, organism-based, Neoplasm; conditions: read-out: Ct
[4] = target: T1, von Hippel-Lindau disease tumor suppressor/SWI/SNF-related matrix-associated actin-dependent regulator of chromatin subfamily A member 2; assay: PROTAC activity at VHL/C-terminal HiBiT fused SMARCA2 in human HeLa cells assessed as induction of SMARCA2 degradation pre-treated with MLN4924 for 2 hrs followed by compound treatment for 24 hrs by Nano-Glo HiBiT analysis; assay type: cell-based
[5] = target: T1, von Hippel-Lindau disease tumor suppressor/SWI/SNF-related matrix-associated actin-dependent regulator of chromatin subfamily A member 2; assay: In vivo PROTAC activity at VHL/SMARCA2 in SCID mouse xenografted with human MV4-11 cells assessed as remaining activity in tumor at 50 mg/kg, iv administered as single dose measured after 2 hrs by Western blotting analysis (reference value: 100 +/- 15 % ); assay type: ADME, organism-based
Target sequence in this assay (P51531 whole entry): as the sequence (P51531 whole entry) above
Target sequence in this assay (P40337 whole entry): as the sequence (P40337 whole entry) above

[6] = target: T1, von Hippel-Lindau disease tumor suppressor/SWI/SNF-related matrix-associated actin-dependent regulator of chromatin subfamily A member 2; assay: In vivo PROTAC activity at VHL/SMARCA2 in SCID mouse xenografted with human MV4-11 cells assessed as reduction of SMARCA2 level in tumor at 50 mg/kg, iv administered as single dose measured after 2 hrs by Western blotting analysis; assay type: ADME, organism-based; set-up: scale not given: the % may be the effect or the level left
Target sequence in this assay (P51531 whole entry): as the sequence (P51531 whole entry) above
Target sequence in this assay (P40337 whole entry): as the sequence (P40337 whole entry) above

[7] = Antiproliferative activity against SMARCA4-deficient human NCI-H1568 cells assessed as cell growth inhibition measured after 7 days by WST-8 assay; assay type: functional; conditions: NCI-H1568, 168 h, time 7 day
[8] = target: T1, von Hippel-Lindau disease tumor suppressor/SWI/SNF-related matrix-associated actin-dependent regulator of chromatin subfamily A member 2; assay: In vivo PROTAC activity at VHL/SMARCA2 in SCID mouse xenografted with human NCI-H838 cells assessed as remaining activity in tumor at 50 mg/kg, iv administered as single dose measured after 24 hrs by Western blotting analysis (reference value: 100 +/- 7% ); assay type: functional, organism-based
[9] = target: T1, von Hippel-Lindau disease tumor suppressor/SWI/SNF-related matrix-associated actin-dependent regulator of chromatin subfamily A member 2; assay: PROTAC activity at VHL/C-terminal HiBiT fused SMARCA2 in human HeLa cells assessed as induction of SMARCA2 degradation incubated for 3 hrs by Nano-Glo HiBiT analysis; assay type: cell-based
Target sequence in this assay (P51531 whole entry): as the sequence (P51531 whole entry) above
Target sequence in this assay (P40337 whole entry): as the sequence (P40337 whole entry) above

[10] = target: T2, von Hippel-Lindau disease tumor suppressor/SWI/SNF-related matrix-associated actin-dependent regulator of chromatin subfamily A member 4; assay: PROTAC activity at VHL/C-terminal HiBiT fused SMARCA4 in human HeLa cells assessed as induction of SMARCA4 degradation by measuring maximal efficacy at 0.001 to 10 uM incubated for 48 hrs by Nano-Glo HiBiT analysis relative to control; assay type: cell-based; conditions: dose 0.001-10 µM
[11] = target: T2, von Hippel-Lindau disease tumor suppressor/SWI/SNF-related matrix-associated actin-dependent regulator of chromatin subfamily A member 4; assay: In vivo PROTAC activity at VHL/SMARCA4 in SCID mouse xenografted with human MV4-11 cells assessed as reduction of SMARCA4 level in tumor at 50 mg/kg, iv administered as single dose measured after 24 hrs by Western blotting analysis; assay type: ADME, organism-based; set-up: scale not given: the % may be the effect or the level left
Target sequence in this assay (P51532 whole entry): as the sequence (P51532 whole entry) above
Target sequence in this assay (P40337 whole entry): as the sequence (P40337 whole entry) above

[12] = Drug concentration in SCID mouse tumor xenografted with human MV4-11 cells at 50 mg/kg, iv measured after 24 hrs by LC-MS/MS method; assay type: ADME, organism-based, Neoplasm; conditions: read-out: Ct
[13] = target: T2, von Hippel-Lindau disease tumor suppressor/SWI/SNF-related matrix-associated actin-dependent regulator of chromatin subfamily A member 4; assay: PROTAC activity at VHL/C-terminal HiBiT fused SMARCA4 in human HeLa cells assessed as induction of SMARCA4 degradation at 0.001 to 10 uM by Nano-Glo HiBiT analysis; assay type: cell-based; conditions: dose 0.001-10 µM, time 1-48 hrs, TDE = time-dependent effect
[14] = target: T2, von Hippel-Lindau disease tumor suppressor/SWI/SNF-related matrix-associated actin-dependent regulator of chromatin subfamily A member 4; assay: In vivo PROTAC activity at VHL/SMARCA4 in SCID mouse xenografted with human MV4-11 cells assessed as remaining activity in tumor at 50 mg/kg, iv administered as single dose measured after 72 hrs by Western blotting analysis (reference value: 100 +/- 15 % ); assay type: ADME, organism-based
Target sequence in this assay (P51532 whole entry): as the sequence (P51532 whole entry) above
Target sequence in this assay (P40337 whole entry): as the sequence (P40337 whole entry) above

[15] = target: T2, von Hippel-Lindau disease tumor suppressor/SWI/SNF-related matrix-associated actin-dependent regulator of chromatin subfamily A member 4; assay: PROTAC activity at VHL/C-terminal HiBiT fused SMARCA4 in human HeLa cells assessed as induction of SMARCA4 degradation by measuring maximal efficacy at 0.001 to 10 uM incubated for 6 hrs by Nano-Glo HiBiT analysis relative to control; assay type: cell-based; conditions: dose 0.001-10 µM
[16] = Drug concentration in SCID mouse tumor xenografted with human MV4-11 cells at 50 mg/kg, iv measured after 96 hrs by LC-MS/MS method; assay type: ADME, organism-based, Neoplasm; conditions: read-out: Ct
[17] = Drug concentration in SCID mouse plasma xenografted with human MV4-11 cells at 50 mg/kg, iv measured after 6 hrs by LC-MS/MS method; assay type: ADME, organism-based
NCI-H1793 = assay: Antiproliferative activity against SMARCA4-deficient human NCI-H1793 cells assessed as cell growth inhibition by measuring maximal efficacy measured after 7 days by WST-8 assay relative to control; assay type: functional; conditions: time 7 day
[18] = target: T1, von Hippel-Lindau disease tumor suppressor/SWI/SNF-related matrix-associated actin-dependent regulator of chromatin subfamily A member 2; assay: In vivo PROTAC activity at VHL/SMARCA2 in SCID mouse xenografted with human MV4-11 cells assessed as remaining activity in tumor at 50 mg/kg, iv administered as single dose measured after 48 hrs by Western blotting analysis (reference value: 100 +/- 15 % ); assay type: ADME, organism-based
Target sequence in this assay (P51531 whole entry): as the sequence (P51531 whole entry) above
Target sequence in this assay (P40337 whole entry): as the sequence (P40337 whole entry) above

[19] = target: T1, von Hippel-Lindau disease tumor suppressor/SWI/SNF-related matrix-associated actin-dependent regulator of chromatin subfamily A member 2; assay: PROTAC activity at VHL/C-terminal HiBiT fused SMARCA2 in human HeLa cells assessed as induction of SMARCA2 degradation at 0.001 to 10 uM by Nano-Glo HiBiT analysis; assay type: cell-based; conditions: dose 0.001-10 µM, time 1-48 hrs, TDE = time-dependent effect
[20] = target: T1, von Hippel-Lindau disease tumor suppressor/SWI/SNF-related matrix-associated actin-dependent regulator of chromatin subfamily A member 2; assay: In vivo PROTAC activity at VHL/SMARCA2 in SCID mouse xenografted with human MV4-11 cells assessed as reduction of SMARCA2 level in tumor at 50 mg/kg, iv administered as single dose measured after 6 hrs by Western blotting analysis; assay type: ADME, organism-based; set-up: scale not given: the % may be the effect or the level left
Target sequence in this assay (P51531 whole entry): as the sequence (P51531 whole entry) above
Target sequence in this assay (P40337 whole entry): as the sequence (P40337 whole entry) above

[21] = target: T1, von Hippel-Lindau disease tumor suppressor/SWI/SNF-related matrix-associated actin-dependent regulator of chromatin subfamily A member 2; assay: In vivo PROTAC activity at VHL/SMARCA2 in SCID mouse xenografted with human MV4-11 cells assessed as reduction of SMARCA2 level in tumor at 50 mg/kg, iv administered as single dose measured after 48 hrs by Western blotting analysis; assay type: ADME, organism-based; set-up: scale not given: the % may be the effect or the level left
[22] = target: T2, von Hippel-Lindau disease tumor suppressor/SWI/SNF-related matrix-associated actin-dependent regulator of chromatin subfamily A member 4; assay: In vivo PROTAC activity at VHL/SMARCA4 in SCID mouse xenografted with human MV4-11 cells assessed as reduction of SMARCA4 level in tumor at 50 mg/kg, iv administered as single dose measured after 72 hrs by Western blotting analysis; assay type: ADME, organism-based; set-up: scale not given: the % may be the effect or the level left
Target sequence in this assay (P51532 whole entry): as the sequence (P51532 whole entry) above
Target sequence in this assay (P40337 whole entry): as the sequence (P40337 whole entry) above

[23] = target: T2, von Hippel-Lindau disease tumor suppressor/SWI/SNF-related matrix-associated actin-dependent regulator of chromatin subfamily A member 4; assay: PROTAC activity at VHL/C-terminal HiBiT fused SMARCA4 in human HeLa cells assessed as induction of SMARCA4 degradation incubated for 24 hrs by Nano-Glo HiBiT analysis; assay type: cell-based
Target sequence in this assay (P51532 whole entry): as the sequence (P51532 whole entry) above
Target sequence in this assay (P40337 whole entry): as the sequence (P40337 whole entry) above

NCI-H1944 = assay: Antiproliferative activity against SMARCA4-deficient human NCI-H1944 cells assessed as cell growth inhibition by measuring maximal efficacy measured after 7 days by WST-8 assay relative to control; assay type: functional; conditions: time 7 day

`Cc1ncsc1-c1ccc([C@H](C)NC(=O)[C@@H]2C[C@@H](O)CN2C(=O)[C@@H](NC(=O)[C@H]2CC[C@H](CN3CC4(CCC(n5cc(-c6cc(-c7ccccc7O)nnc6N)cn5)CC4)C3)CC2)C(C)(C)C)cc1` gave an Activity [1] of 26%, an Activity [2] of 83% and a concentration at 6 h [3] of 1100 ng/g. For the same compound, the Activity [4] was “inactive”, the Activity [5] was 22% and the Activity [6] was 78%. The GI50 [7] was 8.8 nM, the Activity [8] was 9% and the DC50 [9] was 63 nM. The Emax [10] was 68%, the Activity [11] was 29% and the concentration at 24 h [12] was 2960 ng/g. For the same compound, the Activity [13] was “Tde”, the Activity [14] was 91% and the Emax [15] was 49%. The concentration at 96 h [16] was 560 ng/g, the concentration at 6 h [17] was 766 ng/mL and the Imax (NCI-H1793) was 69%. For the same compound, the Activity [18] was 17%, the Activity [19] was “Tde” and the Activity [20] was 70%. The Activity [21] was 83%, the Activity [22] was 9% and the DC50 [23] was greater than 339 nM. The Imax (NCI-H1944) was 88%.
